These results are taken from patent publication US7456274B2, “Inhibition of metallo-β-lactamase” (priority 2003, dated 2008).

Entries after “also recorded” stand apart in the source; their conditions may differ. Like-named read-outs stand apart in the source and are kept apart here.

Assay [1] has as its target B. cereus 5/B/6 metallo-β-lactamase (Bacillus cereus, UniProt P14488). The class given is biochemical. The note with it: for time dependence of the reversible inhibition: 50 mM MOPS, cephalosporin C; for time dependence of the reversible inhibition / IC50: pH=7.0; for inhibition pattern from steady-state kinetic study: Lineweaver-Burk plot; for IC50: enzyme preincubated 15 min at 30° C. in 50 mM MOPS, 4 mM cephalosporin C.

Assay [2] deals with T1, bovine carboxypeptidase A (Bos taurus, UniProt P00730).
T1 construct: purchased Sigma
T1 sequence (P00730 111-419): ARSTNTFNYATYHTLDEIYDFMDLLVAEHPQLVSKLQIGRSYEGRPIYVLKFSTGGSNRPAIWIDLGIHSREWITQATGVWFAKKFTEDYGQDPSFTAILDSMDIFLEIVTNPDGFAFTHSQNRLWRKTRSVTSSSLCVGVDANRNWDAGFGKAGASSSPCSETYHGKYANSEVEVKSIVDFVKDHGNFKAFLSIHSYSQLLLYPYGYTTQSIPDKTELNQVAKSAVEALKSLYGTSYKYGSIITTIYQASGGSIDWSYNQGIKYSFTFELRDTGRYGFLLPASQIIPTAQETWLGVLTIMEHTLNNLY
The experiment in a line: Bovine carboxypeptidase A assay (hippuryl-L-phenylalanine hydrolysis), specificity test. The class given is biochemical. The note with it: 25 nM; 1 mM hippuryl-L-phenylalanine; 25° C., pH=7.5. The protocol:
Method for assay of bovine carboxypeptidase A. The assay of bovine carboxypeptidase A is based on the method of Folk and Schirmer (1963). The rate of hydrolysis of hippuryl-L-phenylalanine is determined by monitoring the increase in absorbance at 254 nm ([…], pH=7.5). The enzyme was dissolved in 10% lithium chloride to a concentration of 1-3 units per mL. Hippuryl-L-phenylalanine (0.001 M) was dissolved in 0.05 M TrisHCl, pH=7.5 with 0.5 M sodium chloride. In a 1 cm of cuvette, 1.0 mL of substrate was added and incubated in the spectrophotometer at 25° C. for 3-4 minutes to reach temperature equilibration and establish blank rate. Fifty μL of diluted enzyme was added to record increase in A254. The enzyme was preincubated with/without the inhibitor in the buffer for 15 min. at 25° C.

In assay [3] the target is metallo-β-lactamase from B. fragilis (Bacteroides fragilis, UniProt P25910). Conditions: NMR characterization; Scrofani et al. (1999); cited from earlier work.
Chain of metallo-β-lactamase from B. fragilis (P25910 19-249): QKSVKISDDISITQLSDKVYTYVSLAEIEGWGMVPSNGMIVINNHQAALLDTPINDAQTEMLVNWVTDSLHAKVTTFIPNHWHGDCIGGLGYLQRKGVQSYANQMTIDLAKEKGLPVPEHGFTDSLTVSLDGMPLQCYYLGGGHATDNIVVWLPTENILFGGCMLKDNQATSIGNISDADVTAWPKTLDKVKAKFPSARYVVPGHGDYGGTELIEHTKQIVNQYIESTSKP
The target of assay [4] is metallo-β-lactamase from Stenotrophomonas maltophilia (Stenotrophomonas maltophilia, UniProt P52700). Conditions: Yang and Crowder (1999); cited from earlier work.
Chain of metallo-β-lactamase from Stenotrophomonas maltophilia (P52700 34-290): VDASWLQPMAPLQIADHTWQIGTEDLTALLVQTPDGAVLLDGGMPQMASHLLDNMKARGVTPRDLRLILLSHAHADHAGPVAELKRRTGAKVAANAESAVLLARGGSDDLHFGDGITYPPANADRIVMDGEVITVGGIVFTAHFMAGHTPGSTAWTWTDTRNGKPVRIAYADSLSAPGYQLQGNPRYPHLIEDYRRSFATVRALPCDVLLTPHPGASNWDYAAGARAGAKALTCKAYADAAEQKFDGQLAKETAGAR
Assay [5] relates to class B β-lactamases. Conditions: cited from earlier work.
The target of assay [6] is metallo-β-lactamases (Bacillus cereus enzyme) (Bacillus cereus, UniProt P04190). The note with it: Mollard et al. (2001); cited from earlier work.
Chain of metallo-β-lactamases (Bacillus cereus enzyme) (P04190 31-257): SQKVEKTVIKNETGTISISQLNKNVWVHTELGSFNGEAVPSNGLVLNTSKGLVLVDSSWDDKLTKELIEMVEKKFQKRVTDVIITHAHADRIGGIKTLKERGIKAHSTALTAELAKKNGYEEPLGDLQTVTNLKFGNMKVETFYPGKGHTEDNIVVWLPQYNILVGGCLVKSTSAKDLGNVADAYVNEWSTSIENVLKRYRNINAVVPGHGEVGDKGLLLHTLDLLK
Where [7] appears, read: intercept replot of Lineweaver-Burk data, read-out: Ki′ (dissociation constant for the inhibitor from the enzyme-substrate-inhibitor complex).
[8] abbreviates: slope replot of Lineweaver-Burk data, read-out: Ki (dissociation constant for the inhibitor from the enzyme-inhibitor complex).

Chain of B. cereus 5/B/6 metallo-β-lactamase (P14488 30-256): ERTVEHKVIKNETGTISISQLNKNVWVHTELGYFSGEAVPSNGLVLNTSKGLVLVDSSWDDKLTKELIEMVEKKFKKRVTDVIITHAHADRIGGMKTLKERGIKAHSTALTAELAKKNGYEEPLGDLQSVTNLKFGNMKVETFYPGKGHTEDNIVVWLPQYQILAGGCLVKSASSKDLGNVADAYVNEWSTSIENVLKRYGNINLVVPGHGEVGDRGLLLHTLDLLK

What is called IC50 is the concentration that inhibits the measured activity by half. The low end stands for greater potency, the high end for weaker potency. For orientation: Ki means the dissociation constant of the complex between target and ligand, obtained from inhibition or displacement. Consider “5′-d(AACCAAACTTGGATCGGTGCACATGTCGAA)-3′ [30-mer]”, for which the “time dependence of the reversible inhibition” value in assay [1] (0.5 nM the 30-mer) is “time-independent; also recorded: not time-dependent”. Besides, in assay [1], the “inhibition pattern from steady-state kinetic study” value (shortened to “inhibition pattern”) was “noncompetitive inhibition” and the 50% inhibitory concentration (IC50) came out at 1.2 nM. The Ki in assay [1] (setting [7]) was determined as 11 nM. The Ki in assay [1] (setting [8]) is 0.92 nM. In addition, in assay [2], the “effect on the activity of the carboxypeptidase A” value is “no effect; also recorded: did not show any inhibition”.

In the case of 5′-d(CCAAACTTGG)-3′ [10-mer], the “time dependence of the reversible inhibition” value in assay [1] (1.0 nM of the 10-mer) is listed as “time-independent; also recorded: not time-dependent”. In addition, the “inhibition pattern” value in assay [1] is on record as “noncompetitive inhibition”. In assay [1] (vs. Mollard et al. (2001)), the “fold lower Ki than the Ki reported for R-thiomandelic acid” value stood at 290 fold. The “effect on the activity of the carboxypeptidase A” value in assay [2] is “no effect; also recorded: did not show any inhibition”.

Consider `OCCS` [2-mercaptoethanol, reference compound], for which the “inhibition pattern” value in assay [1] is “noncompetitive inhibition”. The compound also gave an IC50 in assay [1] of 4000 nM. In addition, the results for the Ki in assay [1] (setting [7]) and in assay [1] (setting [8]) were 4000 nM and 2000 nM, respectively.

With `CC1(C)SCN(C(=O)[C@@H](CS)Cc2ccccc2)[C@H]1C(=O)O` [3-[2′-(S)-benzyl-3′-mercaptopropanoyl]-4-(S)-carboxy-5,5-dimethylthiazolidine], the “binding to metallo-β-lactamase” value in assay [3] is listed as ““tightly” binds”.

Take `O=C(O)CN(CCN(CC(=O)O)CC(=O)O)CC(=O)O` [EDTA, reference compound]: the “inhibition pattern” value in assay [1] is listed as “noncompetitive inhibition”. In addition, the midpoint of inhibition in assay [1], the IC50, lay at 3100 nM. The results for the Ki in assay [1] (setting [7]) and in assay [1] (setting [8]) were 2900 nM and 750 nM, respectively.

For `O=C(Cc1ccccc1)NCCS` [N-(2′-mercaptoethyl)-2-phenylacetamide], in assay [4], the Ki is 50000 ± 3000 nM and the type of inhibition result is listed as “competitive inhibitors”.

On to `O=C(O)[C@H]1/C(=C/CO)O[C@@H]2CC(=O)N21` [clavulanic acid], for which the “inhibition of class B β-lactamases” value in assay [5] is reported as “do not inhibit”.

As to `O=C1C[C@H]2SC=CN12` [penem], the “inhibition of class B β-lactamases” value in assay [5] is “do not inhibit”.

Consider N-benzylacetyl-D-alanylthioacetic acid, for which, in assay [4], the Ki is 1600 ± 300 nM and the type of inhibition entry is “competitive inhibitors”.

As for R-thiomandelic acid, the Ki in assay [6] is 90 nM.
